# Reference: paper PMC8931498 (Frontiers in Pharmacology, 2022)
# Read-outs that look alike come from different tables or passages of the source.
# Key:
# [1] = Plasma pharmacokinetics over 2 h after oral ibogaine in wild-type, Abcg2-/- and Abcb1a/1b;Abcg2-/- mice; format: in vivo; details: for Fold increase AUC0-2h: oral 10 mg/kg ibogaine; for Tmax / Cmax / AUC(0-t): mouse, plasma, po, 10 mg/kg; for AUC(0-t): read-out: AUC0-2h
# Procedure: (§1) In each experiment, six to seven mice were used per strain. […] To reduce variation in absorption upon oral administration, mice were fasted for 2–3 h before dosing. […] At either 2 or 8 h after dosing, mice were deeply anesthetized with isoflurane (3%), followed by cardiac puncture to collect blood (at least 600 μL) in Eppendorf tubes using heparin as an anticoagulant. The mice were then sacrificed by cervical dislocation, and tissues including the brain, liver (without gallbladder), kidneys, spleen, small intestine together with the fecal content (SIWC), heart, and subcutaneous inguinal white adipose tissue were collected and weighed. For the 2 h experiment, the gallbladder with content was also (separately) collected in an Eppendorf tube and weighed. Plasma was obtained from blood samples by centrifugation at 9,000 g for 6 min at 4 °C. Tissue homogenates (except gallbladder) were obtained using the Fast Prep-24 5G homogenizer (MP Biomedicals Inc., Santa Ana, CA, United States). Before homogenization, Bovine Serum Albumin (BSA, Fraction V) was dissolved at a concentration of 2% (w/v) in distilled water. Three mL of ice-cold 2% BSA were added to liver and SIWC; 2 ml to kidneys; 1 ml to brain, spleen, and heart; and 2–3 ml to the white adipose tissue (depending on the tissue weight). For the gallbladder, 150 μL of 2% BSA was added; then, the samples were centrifuged (9,000 x g, 4°C, 6 min), and only the supernatant was collected for analysis. Both plasma and tissue samples were kept at −70°C in amber-colored Eppendorf tubes until analysis.
# (§2) A volume of 50 µL human plasma sample, a 5-fold diluted mouse plasma sample (10 uL + 40 uL control human plasma), or 100 µL homogenized tissue sample were processed. […] To the 50 uL plasma samples, 20 uL of a working solution containing both internal standards at a concentration of 10 ng/ml in methanol (WIS10) was added. Sample pre-treatment involved protein precipitation with 150 uL of acetonitrile-methanol (1:1, v/v). For the tissue homogenates (100 uL sample aliquots), 40 uL of WIS10 was added, and 300 uL precipitation reagent as sample cleanup. After centrifuging the samples (10 min, 4°C, 15,000 x g), 100 µL of the supernatant was transferred to an amber-colored autosampler vial with insert. Then 100 µL of 4 mM ammonium formate pH 3.5 in water was added, and after vortex mixing, the extracts were injected (5 uL) onto a UPLC system (Acquity UPLC I-Class IVD system, Waters, Milford, MA, United States) equipped with an Acquity UPLC HSS T3 Column (150 × 2.1 mm ID, 1.8 µm). The tray temperature was set to 5 ± 3°C, and the analytical column was kept at 50°C. Gradient elution was applied using 4 mM ammonium formate pH 3.5 in water as eluent A and acetonitrile as eluent B. The flow rate was 500 μL/min, and the total runtime was 6 min. Detection was performed in the positive ion mode on a Quadrupole MS/MS detector with a Turbo Ion Spray Interface (QTRAP5500, Sciex, Framingham, MA, United States). The ionspray voltage was 2250 V, and the spray temperature was 700 °C. Gas settings, potentials, and collision energies were optimized by infusion of the analytes and by flow injection analysis.
# (§3) Pharmacokinetic parameters were calculated by non-compartmental methods using the Microsoft Excel menu-driven add-in program PKsolver ([Zhang et al., 2010]). The area under the plasma concentration-time curve (AUC) was calculated with the trapezoidal rule without extrapolating to infinity. The peak plasma concentration (Cmax) and the time to reach Cmax (Tmax) were estimated from the original data. […] GraphPad Prism 9 (GraphPad Software Inc., San Diego, CA, United States) was used to plot the data and to perform statistical analysis. To determine whether the most extreme value in a data set was a significant outlier from the rest, the Grubbs’s (or extreme studentized variate) test was applied (α = 0.05). All data were log-transformed before statistical analysis. […]
# [2] = Plasma pharmacokinetics over 2 h after oral ibogaine in wild-type, Oatp1a/1b-/-, Oatp1a/1b-/-;1B1tg and Oatp1a/1b-/-;1B3tg mice; format: in vivo; details: for Fold increase AUC0-2h: oral 10 mg/kg ibogaine; for Cmax / Tmax / AUC(0-t): female, mouse, plasma, po, 10 mg/kg; for AUC(0-t): read-out: AUC0-2h
# Procedure: as §1, §2, §3
# [3] = Plasma pharmacokinetics over 8 h after oral ibogaine in wild-type, Cyp3a-/- and Cyp3aXAV mice; format: in vivo; details: female, mouse, 10 mg/kg; for AUC(0-t): read-out: AUC0-8h
# Procedure: as §1, §2, §3
# [4] = Tissue distribution 2 h after oral ibogaine in wild-type, Abcg2-/- and Abcb1a/1b;Abcg2-/- mice; format: in vivo; details: for Kp at 2 h: mouse, po, 10 mg/kg; for fold decrease in total amount (% of dose) in SIWC corrected for plasma AUC over 2 h: small intestine with fecal content, oral 10 mg/kg ibogaine
# Procedure: as §1, §2, §3
# [5] = Tissue accumulation 2 h after oral ibogaine in wild-type and Oatp1a/1b-deficient mouse strains; format: in vivo, mice; details: for fold reduction in liver accumulation: tissue concentration relative to plasma AUC0-2h, oral 10 mg/kg ibogaine
# Procedure: as §1
# A volume of 50 µL human plasma sample, a 5-fold diluted mouse plasma sample (10 uL + 40 uL control human plasma), or 100 µL homogenized tissue sample were processed. […] To the 50 uL plasma samples, 20 uL of a working solution containing both internal standards at a concentration of 10 ng/ml in methanol (WIS10) was added. Sample pre-treatment involved protein precipitation with 150 uL of acetonitrile-methanol (1:1, v/v). For the tissue homogenates (100 uL sample aliquots), 40 uL of WIS10 was added, and 300 uL precipitation reagent as sample cleanup. After centrifuging the samples (10 min, 4°C, 15,000 x g), 100 µL of the supernatant was transferred to an amber-colored autosampler vial with insert. […]
# Pharmacokinetic parameters were calculated by non-compartmental methods using the Microsoft Excel menu-driven add-in program PKsolver ([Zhang et al., 2010]). The area under the plasma concentration-time curve (AUC) was calculated with the trapezoidal rule without extrapolating to infinity. […]
# [6] = design: method as in Luz and Mash, 2021; details: ref Luz and Mash, 2021; cited from earlier work
# [7] = design: method as in Mačiulaitis et al., 2008; details: in 24 h in rats; ref Mačiulaitis et al., 2008; cited from earlier work
# human ABCB1 = tested on: human ABCB1; design: method as in Tournier et al. (2010); details: hABCB1-transfected HEK293 cells, flow cytometric assay; ref Tournier et al. (2010); cited from earlier work
# human ABCG2 = tested on: human ABCG2; design: method as in Tournier et al. (2010); details: hABCG2-transfected HEK293 cells, flow cytometric assay; ref Tournier et al. (2010); cited from earlier work
# [8] = Abcb1a/1b;Abcg2-/- mice vs wild-type
# [9] = Oatp1a/1b-/-;1B1tg mice vs wild-type
# [10] = Oatp1a/1b-/-;1B3tg mice vs wild-type
# [11] = wild-type, inguinal white adipose tissue, read-out: adipose tissue-to-plasma distribution ratio
compound,measurement,setting,value
"CCC1CC2CC3c4[nH]c5ccc(O)cc5c4CCN(C2)C13 (centres unmarked) [Noribogaine, 12-hydroxyibogamine]",Fold increase AUC0-2h,[1]; [8],1.2
same,Tmax,[1]; Abcb1a/1b;Abcg2-/-,0.25 h
same,Fold increase AUC0-2h,[1]; Abcg2-/- mice vs wild-type,1.1
same,Tmax,[1]; Abcg2-/-,0.25 h
same,Cmax,"[1]; female, Abcb1a/1b;Abcg2-/-",276 ± 98 ng/mL
same,AUC(0-t),"[1]; female, Abcb1a/1b;Abcg2-/-",419 ± 126 ng·h/mL
same,Cmax,"[1]; female, Abcg2-/-",233 ± 61 ng/mL
same,AUC(0-t),"[1]; female, Abcg2-/-",381 ± 108 ng·h/mL
same,Cmax,"[1]; female, wild-type",208 ± 70 ng/mL
same,Tmax,"[1]; female, wild-type",0.5 h
same,AUC(0-t),"[1]; female, wild-type",339 ± 107 ng·h/mL
same,Fold increase AUC0-2h,[1]; wild-type mice (reference),1.0
same,Fold increase AUC0-2h,[2]; Oatp1a/1b-/- mice vs wild-type,1.4
same,Fold increase AUC0-2h,[2]; [9],1.7
same,Fold increase AUC0-2h,[2]; [10],1.5
same,Cmax,[2]; Oatp1a/1b-/-,290 ± 73 ng/mL
same,Tmax,[2]; Oatp1a/1b-/-,0.5 h
same,AUC(0-t),[2]; Oatp1a/1b-/-,458 ± 110 ng·h/mL
same,Cmax,[2]; Oatp1a/1b-/-;1B1tg,417 ± 95 ng/mL
same,Tmax,[2]; Oatp1a/1b-/-;1B1tg,0.25 h
same,AUC(0-t),[2]; Oatp1a/1b-/-;1B1tg,578 ± 86 ng·h/mL
same,Cmax,[2]; Oatp1a/1b-/-;1B3tg,411 ± 107 ng/mL
same,Tmax,[2]; Oatp1a/1b-/-;1B3tg,0.25 h
same,AUC(0-t),[2]; Oatp1a/1b-/-;1B3tg,519 ± 100 ng·h/mL
same,Cmax,[2]; wild-type,209 ± 70 ng/mL
same,Tmax,[2]; wild-type,0.5 h
same,AUC(0-t),[2]; wild-type,339 ± 107 ng·h/mL
same,Fold increase AUC0-2h,[2]; wild-type mice (reference),1.0
same,Cmax,[3]; Cyp3a-/-,280 ± 75 ng/mL
same,Tmax,[3]; Cyp3a-/-,0.5 h
same,AUC(0-t),[3]; Cyp3a-/-,1070 ± 320 ng·h/mL
same,Cmax,[3]; Cyp3aXAV,328 ± 75 ng/mL
same,Tmax,[3]; Cyp3aXAV,0.5 h
same,AUC(0-t),[3]; Cyp3aXAV,1400 ± 320 ng·h/mL
same,Cmax,[3]; wild-type,217 ± 37 ng/mL
same,Tmax,[3]; wild-type,0.5 h
same,AUC(0-t),[3]; wild-type,655 ± 220 ng·h/mL
same,Kp at 2 h,"[4]; Abcb1a/1b;Abcg2-/-, brain, read-out: brain-to-plasma ratio",8.3
same,"liver-to-plasma ratios, times higher than gallbladder-to-plasma ratios","[4]; WT, Abcg2-/- and Abcb1a/1b;Abcg2-/- mice, 2 h after oral 10 mg/kg ibogaine",at least 3 times
same,"absolute brain concentrations, fold higher than those of ibogaine","[4]; wild-type mice, both at 2 and 8 h after oral 10 mg/kg ibogaine",≥ 100 fold
same,Kp at 2 h,"[4]; wild-type, brain, read-out: brain-to-plasma ratio",7.2
same,Kp at 2 h,[4]; [11],2.8
same,fold reduction in liver accumulation,[5]; Oatp1a/1b-/- mice compared to WT,1.6 fold
same,fold reduction in liver accumulation,[5]; Oatp1a/1b-/-;1B1tg mice compared to WT,1.8 fold
same,fold reduction in liver accumulation,[5]; Oatp1a/1b-/-;1B3tg mice compared to WT,2.1 fold
same,half-life in plasma,[6],24 to 30 h
same,"excreted via urine and feces, % of the administered dose",[7],60–70%
ibogaine,inhibition of human ABCB1,human ABCB1,significantly inhibited in a concentration-dependent manner
same,inhibition of human ABCG2,human ABCG2,significantly inhibited in a concentration-dependent manner
"CCC1CC2CC3c4[nH]c5ccc(OC6OC(C(=O)O)C(O)C(O)C6O)cc5c4CCN(C2)C13 (centres unmarked) [Noribogaine glucuronide, noribogaine glucuronide]",Fold increase AUC0-2h,[1]; [8],1.5
same,Tmax,[1]; Abcb1a/1b;Abcg2-/-,2 h
same,Fold increase AUC0-2h,[1]; Abcg2-/- mice vs wild-type,1.1
same,Tmax,[1]; Abcg2-/-,2 h
same,Cmax,"[1]; female, Abcb1a/1b;Abcg2-/-",156 ± 31 ng/mL
same,AUC(0-t),"[1]; female, Abcb1a/1b;Abcg2-/-",240 ± 46 ng·h/mL
same,Cmax,"[1]; female, Abcg2-/-",122 ± 27 ng/mL
same,AUC(0-t),"[1]; female, Abcg2-/-",184 ± 32 ng·h/mL
same,Cmax,"[1]; female, wild-type",125 ± 30 ng/mL
same,Tmax,"[1]; female, wild-type",2 h
same,AUC(0-t),"[1]; female, wild-type",164 ± 12 ng·h/mL
same,Fold increase AUC0-2h,[1]; wild-type mice (reference),1.0
same,Fold increase AUC0-2h,[2]; Oatp1a/1b-/- mice vs wild-type,1.5
same,Fold increase AUC0-2h,[2]; [9],1.8
same,Fold increase AUC0-2h,[2]; [10],1.4
same,Cmax,[2]; Oatp1a/1b-/-,155 ± 20 ng/mL
same,Tmax,[2]; Oatp1a/1b-/-,2 h
same,AUC(0-t),[2]; Oatp1a/1b-/-,244 ± 30 ng·h/mL
same,Cmax,[2]; Oatp1a/1b-/-;1B1tg,199 ± 59 ng/mL
same,Tmax,[2]; Oatp1a/1b-/-;1B1tg,1 h
same,AUC(0-t),[2]; Oatp1a/1b-/-;1B1tg,294 ± 65 ng·h/mL
same,Cmax,[2]; Oatp1a/1b-/-;1B3tg,162 ± 25 ng/mL
same,Tmax,[2]; Oatp1a/1b-/-;1B3tg,1 h
same,AUC(0-t),[2]; Oatp1a/1b-/-;1B3tg,236 ± 24 ng·h/mL
same,Cmax,[2]; wild-type,125 ± 30 ng/mL
same,Tmax,[2]; wild-type,2 h
same,AUC(0-t),[2]; wild-type,164 ± 12 ng·h/mL
same,Fold increase AUC0-2h,[2]; wild-type mice (reference),1.0
same,Cmax,[3]; Cyp3a-/-,114 ± 24 ng/mL
same,Tmax,[3]; Cyp3a-/-,1 h
same,AUC(0-t),[3]; Cyp3a-/-,422 ± 110 ng·h/mL
same,Cmax,[3]; Cyp3aXAV,123 ± 28 ng/mL
same,Tmax,[3]; Cyp3aXAV,1 h
same,AUC(0-t),[3]; Cyp3aXAV,536 ± 117 ng·h/mL
same,Cmax,[3]; wild-type,70 ± 13.6 ng/mL
same,Tmax,[3]; wild-type,1 h
same,AUC(0-t),[3]; wild-type,219 ± 50 ng·h/mL
same,fold decrease in liver-to-plasma ratio,"[4]; Abcb1a/1b;Abcg2-/- mice compared to WT, 2 h after oral 10 mg/kg ibogaine",1.7 fold
same,fold decrease in total amount (% of dose) in SIWC corrected for plasma AUC over 2 h,[4]; Abcb1a/1b;Abcg2-/- mice compared to WT,2.1 fold
same,"gallbladder-to-plasma ratio, fold lower than in WT","[4]; Abcb1a/1b;Abcg2-/- vs WT mice, not statistically significant, 2 h after oral 10 mg/kg ibogaine",more than 2 fold
same,fold decrease in total amount (% of dose) in SIWC corrected for plasma AUC over 2 h,[4]; Abcg2-/- mice compared to WT,1.5 fold
same,Kp at 2 h,[4]; [11],0.058
same,"gallbladder-to-plasma ratio, fold higher than liver-to-plasma ratio","[5]; WT mice, 2 h after oral 10 mg/kg ibogaine",about 10 fold
